Reference: ChEMBL document CHEMBL5241138, “Inhibitors of Interleukin 4 Induced Protein 1 (IL4I1) as Potential Treatment for Cancer” (ACS Med Chem Lett, 2023)

Target: T1, L-amino-acid oxidase (Homo sapiens, UniProt Q96RQ9)
T1 sequence (Q96RQ9 whole entry): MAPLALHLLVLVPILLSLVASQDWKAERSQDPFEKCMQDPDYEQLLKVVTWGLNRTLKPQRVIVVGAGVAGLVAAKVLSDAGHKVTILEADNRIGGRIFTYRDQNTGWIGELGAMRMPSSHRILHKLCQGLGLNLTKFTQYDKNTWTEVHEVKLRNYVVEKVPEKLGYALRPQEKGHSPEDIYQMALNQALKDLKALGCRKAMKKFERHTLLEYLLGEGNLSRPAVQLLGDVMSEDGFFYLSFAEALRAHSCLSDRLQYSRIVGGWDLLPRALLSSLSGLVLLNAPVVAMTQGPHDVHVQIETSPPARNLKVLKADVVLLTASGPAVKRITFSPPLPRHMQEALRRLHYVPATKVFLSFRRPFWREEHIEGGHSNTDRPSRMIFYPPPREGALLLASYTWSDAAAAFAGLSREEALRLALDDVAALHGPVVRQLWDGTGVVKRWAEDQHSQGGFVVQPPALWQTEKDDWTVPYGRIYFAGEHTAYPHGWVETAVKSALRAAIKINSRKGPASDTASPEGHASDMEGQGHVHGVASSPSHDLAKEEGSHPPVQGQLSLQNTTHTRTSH
Assay: Inhibition of C-terminal 6-His tagged recombinant human IL4I1 (Gln22 to His567 residues) expressed in CHO cells using Phe/Tyr/Trp as substrate assessed as inhibition of H2O2 production measured after 240 mins by Amplex red and horseradish peroxidase based fluorescence assay

Structure (SMILES): O=C1C(=O)N(C2C[C@@H]3C[C@@H]3C2)CCN1Cc1ccc(-c2nccs2)nn1 (stereo partly specified)
- EC50: 23 nM
